These results are taken from patent publication US20260070924A1, “INDAZOLE MACROCYCLES AND THEIR USE” (BLOSSOMHILL THERAPEUTICS, INC., priority 2022, published 2026).

The test system of one test is BCLxS/xL. Kind of test: Alternative splicing ratio by qPCR in MOLM-13. It is filed as cell-based. To be noted: DMSO = 1.00. As for the experimental part: Alternative splicing ratio of RNA transcripts was measured by qPCR in MV-4-11 and MOLM-13 cell lines. Cells were plated in 24 well plates at 1 million cells per well and then treated with compounds at different concentrations, with DMSO only as control. After 8-hour-incubation, cells were harvested and washed once with ice-cold PBS, and lysed in RNA lysis buffer (Invitrogen). Total RNA was extracted using the RNA Purification Kit (Invitrogen). 2 μg of RNA was used for cDNA synthesis using cDNA synthesis kit (ThermoFisher) and 20 ng of cDNA was used for qPCR using PROFLEX 96-Well PCR System (ThermoFisher).
• BCLxS/xL (SYBR Green, IDT)
(In qPCR the cycle at which signal appears reflects the starting amount.)

The next test concerns phospho-STAT5 (Y694). As to the kind of experiment: Inhibition of kinase phosphorylation by Western Blot in MV-4-11. It is filed as cell-based. The note with it: MV-4-11 cells, 4 hour-incubation; read-out: pSTAT5 MV-4-11 IC50. As to the method: (§1) Inhibition of kinase phosphorylation assay was performed by Western Blot using MV-4-11 and MOLM13 cell lines. Cells were plated in 24 well plates at 1 million cells per well and then treated with compounds at different concentrations, starting at 100 nM, 1:4 titration with DMSO as control. After 4 hour-incubation, cells were washed once with ice-cold PBS, and lysed in RIPA lysis buffer with protease and phosphatase inhibitors. The cell lysates were then sonicated and spun down, and 40 μg of proteins were separated by sodium dodecyl sulfate electrophoresis on a 4 to 12% Bis-Tris polyacrylamide gel and transferred onto nitrocellulose membranes using Bio-Rad Trans-Blot Turbo Transfer System (Bio-Rad). Blocking was performed using 3% BSA or 5% Non-fat dry milk (Fisher Scientific) in TBST (Tris-buffered saline containing 0.05% of Tween 20) (Bio-Rad Laboratories, Inc.). The membranes were incubated overnight with anti-phospho-FLT3 (Y589/Y591) (CST #60413), anti-phospho-STAT5 (Y694) (CST #4322), anti-Phospho-p44/42 MAPK (Erk1/2) (T202/Y204) (CST #9101), anti-Phospho-S6 Ribosomal Protein (S235/236) (CST #4858) and anti-β-Actin (CST #8457) each diluted 1000 times in 3% BSA in TBST. Membranes were washed with TBST and then incubated at room temperature for 1 hour with HRP-labeled anti-rabbit IgG polyclonal antibody (CST #7074) diluted 1000 times in 3% BSA. After TBST washing, blots were developed with a chemiluminescence system (SuperSignal West Femto Maximum Sensitivity Substrate, Pierce #34095). Luminescence was detected by LI-COR Odyssey M imaging system and luminescence intensity were quantified using Empiria Studio 2.2 software. Data was analyzed using GraphPad Prism 9 (GraphPad Software, San Diego, CA) to obtain IC50 values.

The subject of test [1] is Phospho-p44/42 MAPK (Erk1/2) (T202/Y204). Described as above. In kind it is cell-based. To be noted: MV-4-11 cells, 4 hour-incubation; read-out: pERK MV-4-11 IC50. As to the method:
as §1

Test [2] relates to Phospho-S6 Ribosomal Protein (S235/236). The description is as above. It is filed as cell-based. To be noted: MV-4-11 cells, 4 hour-incubation; read-out: pS6 MV-4-11 IC50. As for the experimental part:
as §1

In another test the target is FLT3 (Homo sapiens (Human), UniProt P36888). As to the kind of experiment: HotSpot radiometric kinase assay (Reaction Biology). It is filed as biochemical.
Sequence of FLT3 (P36888 27-993): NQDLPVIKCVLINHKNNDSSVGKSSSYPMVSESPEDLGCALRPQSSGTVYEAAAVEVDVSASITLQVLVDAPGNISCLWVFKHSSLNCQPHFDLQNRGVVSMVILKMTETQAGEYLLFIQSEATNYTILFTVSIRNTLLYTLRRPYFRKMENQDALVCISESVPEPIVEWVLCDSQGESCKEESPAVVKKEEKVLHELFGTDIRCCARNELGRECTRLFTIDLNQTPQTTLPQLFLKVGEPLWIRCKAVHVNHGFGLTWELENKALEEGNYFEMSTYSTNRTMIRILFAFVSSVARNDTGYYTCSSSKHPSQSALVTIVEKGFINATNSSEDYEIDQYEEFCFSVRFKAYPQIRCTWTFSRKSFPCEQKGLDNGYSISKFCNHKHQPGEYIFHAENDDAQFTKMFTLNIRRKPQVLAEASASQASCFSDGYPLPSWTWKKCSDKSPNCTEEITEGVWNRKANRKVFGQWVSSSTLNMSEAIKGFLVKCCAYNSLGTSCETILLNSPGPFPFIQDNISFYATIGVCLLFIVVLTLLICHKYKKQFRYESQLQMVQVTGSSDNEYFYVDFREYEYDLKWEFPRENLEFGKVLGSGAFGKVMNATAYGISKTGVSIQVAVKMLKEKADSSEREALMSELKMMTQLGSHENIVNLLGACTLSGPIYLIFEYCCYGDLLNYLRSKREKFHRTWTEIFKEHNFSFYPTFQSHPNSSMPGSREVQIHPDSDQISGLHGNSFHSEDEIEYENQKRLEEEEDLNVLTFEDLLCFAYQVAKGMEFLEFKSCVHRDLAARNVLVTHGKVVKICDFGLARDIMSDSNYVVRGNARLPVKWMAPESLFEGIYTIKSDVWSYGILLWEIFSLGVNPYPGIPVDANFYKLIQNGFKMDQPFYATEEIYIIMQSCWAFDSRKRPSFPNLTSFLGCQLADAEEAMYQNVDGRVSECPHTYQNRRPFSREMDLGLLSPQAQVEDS
Test [3] deals with phospho-FLT3 (Y589/Y591) (Homo sapiens (Human), UniProt P36888, INS600HVDFREYEYD). Kind of test: Inhibition of kinase phosphorylation by Western Blot in MV-4-11. In kind it is cell-based. To be noted: MV-4-11 cells, 4 hour-incubation; read-out: pFLT3 MV-4-11 IC50.
Sequence of phospho-FLT3 (Y589/Y591) (Homo sapiens (Human), UniProt P36888, INS600HVDFREYEYD) (P36888 whole entry, looked up, stated change not applied): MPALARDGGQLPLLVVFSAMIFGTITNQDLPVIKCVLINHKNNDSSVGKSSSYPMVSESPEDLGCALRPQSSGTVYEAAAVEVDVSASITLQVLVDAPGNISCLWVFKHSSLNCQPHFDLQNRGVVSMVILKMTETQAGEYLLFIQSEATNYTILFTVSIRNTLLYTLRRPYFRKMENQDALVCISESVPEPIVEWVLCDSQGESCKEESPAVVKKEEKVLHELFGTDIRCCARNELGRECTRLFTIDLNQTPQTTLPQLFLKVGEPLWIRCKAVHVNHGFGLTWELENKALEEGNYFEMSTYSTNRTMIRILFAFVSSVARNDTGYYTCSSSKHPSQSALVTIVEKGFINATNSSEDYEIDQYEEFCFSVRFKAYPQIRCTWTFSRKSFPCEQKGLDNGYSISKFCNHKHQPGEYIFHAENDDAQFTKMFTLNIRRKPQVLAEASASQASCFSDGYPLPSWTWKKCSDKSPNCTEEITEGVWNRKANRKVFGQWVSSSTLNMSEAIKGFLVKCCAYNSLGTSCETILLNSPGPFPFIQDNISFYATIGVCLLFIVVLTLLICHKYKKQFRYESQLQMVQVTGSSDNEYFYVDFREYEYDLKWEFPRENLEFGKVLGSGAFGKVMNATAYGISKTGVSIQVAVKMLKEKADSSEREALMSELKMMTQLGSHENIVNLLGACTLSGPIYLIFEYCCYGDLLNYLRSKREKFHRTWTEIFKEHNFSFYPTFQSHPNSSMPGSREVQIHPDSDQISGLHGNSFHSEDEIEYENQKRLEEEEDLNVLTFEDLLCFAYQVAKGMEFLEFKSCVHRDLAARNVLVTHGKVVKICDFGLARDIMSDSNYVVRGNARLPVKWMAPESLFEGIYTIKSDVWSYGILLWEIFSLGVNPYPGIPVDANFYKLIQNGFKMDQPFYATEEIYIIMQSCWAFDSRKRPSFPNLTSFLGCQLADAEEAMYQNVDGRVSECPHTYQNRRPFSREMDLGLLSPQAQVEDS
Method: Inhibition of kinase phosphorylation assay was performed by Western Blot using MV-4-11 and MOLM13 cell lines. Cells were plated in 24 well plates at 1 million cells per well and then treated with compounds at different concentrations, starting at 100 nM, 1:4 titration with DMSO as control. After 4 hour-incubation, cells were washed once with ice-cold PBS, and lysed in RIPA lysis buffer with protease and phosphatase inhibitors. The cell lysates were then sonicated and spun down, and 40 μg of proteins were separated by sodium dodecyl sulfate electrophoresis on a 4 to 12% Bis-Tris polyacrylamide gel and transferred onto nitrocellulose membranes using Bio-Rad Trans-Blot Turbo Transfer System (Bio-Rad). Blocking was performed using 3% BSA or 5% Non-fat dry milk (Fisher Scientific) in TBST (Tris-buffered saline containing 0.05% of Tween 20) (Bio-Rad Laboratories, Inc.). […] Luminescence was detected by LI-COR Odyssey M imaging system and luminescence intensity were quantified using Empiria Studio 2.2 software. Data was analyzed using GraphPad Prism 9 (GraphPad Software, San Diego, CA) to obtain IC50 values.
A further test has as its system KG-1. As to the kind of experiment: Cell proliferation panel (CellTiter-Glo 2.0, 5 days). It is filed as cell-based. To be noted: Acute myelogenous leukemia. As to the method: (§2) Cell proliferation assay was carried out in a panel of 108 cell lines. 1000 (attached cells) or 3000 (suspension cells) cells/100 μl per well were seeded in 96 well black plate with a clear bottom (Corning #3904). Compounds were added using Tecan D300e Digital Dispenser in 1:3 titration for 9 doses. Plates were incubated for 5 days at 37° C. and 5% CO2. Cell proliferation was measured using CellTiter-Glo 2.0 luciferase-based ATP detection assay (Promega, Madison, WI) at 50 μl per well following the manufacturer's protocol. Plates were then read on a TECAN Sparks multimode microplate reader. Data was analyzed using GraphPad Prism 9 (GraphPad Software, San Diego, CA) to obtain IC50 values. IC50 values were determined using Prism software (GraphPad Software, San Diego, CA).
Background: In ATP-based viability assays light output follows the ATP content of the culture.

Another test deals with H2291. Described as above. It is filed as cell-based. To be noted: Lung adenocarcinoma NSCLC. As for the experimental part: as §2
For the next test, the system named is MIAPaCa-2. Described as above. It is filed as cell-based. The note with it: Pancreatic carcinoma. As to the method: as §2
The subject of another test is SNU-16. The test is described as above. In kind it is cell-based. To be noted: Gastric carcinoma. As for the experimental part: as §2
A further test relates to H727. Described as above. It is filed as cell-based. To be noted: Bronchial lung carcinoid. As to the method: as §2
The subject of the next test is H358. The description is as above. It is filed as cell-based. The note with it: Bronchioalveolar carcinoma NSCLC. As for the experimental part:
as §2

In another test the test system is Hs746T. Described as above. In kind it is cell-based. To be noted: Gastric carcinoma. As for the experimental part:
as §2

Another test deals with Toledo. Described as above. In kind it is cell-based. To be noted: Diffuse Large B Cell Lymphoma. As to the method:
as §2

The next test deals with TF-1. The test is described as above. In kind it is cell-based. To be noted: Erythroleukemia. As for the experimental part:
as §2

Another test concerns BJ. The test is described as above. It is filed as cell-based. To be noted: Skin fibroblast. As for the experimental part:
as §2

A further test concerns SKOV3. Described as above. In kind it is cell-based. The note with it: Ovarian adenocarcinoma. As to the method: as §2
Test [4] concerns the target phospho-FLT3 (Y589/Y591) (Homo sapiens, UniProt P36888, INS600FREYEYD). Kind of test: Inhibition of kinase phosphorylation by Western Blot in MOLM-13. To be noted: MOLM-13 cells, 4 hour-incubation; read-out: pFLT3 MOLM-13 IC50. It is filed as cell-based. In general terms: A western blot detects proteins with antibodies after separation by electrophoresis.

Sequence of phospho-FLT3 (Y589/Y591) (Homo sapiens, UniProt P36888, INS600FREYEYD) (P36888 with tags, fused parts or gaps INS600FREYEYD limits assumed): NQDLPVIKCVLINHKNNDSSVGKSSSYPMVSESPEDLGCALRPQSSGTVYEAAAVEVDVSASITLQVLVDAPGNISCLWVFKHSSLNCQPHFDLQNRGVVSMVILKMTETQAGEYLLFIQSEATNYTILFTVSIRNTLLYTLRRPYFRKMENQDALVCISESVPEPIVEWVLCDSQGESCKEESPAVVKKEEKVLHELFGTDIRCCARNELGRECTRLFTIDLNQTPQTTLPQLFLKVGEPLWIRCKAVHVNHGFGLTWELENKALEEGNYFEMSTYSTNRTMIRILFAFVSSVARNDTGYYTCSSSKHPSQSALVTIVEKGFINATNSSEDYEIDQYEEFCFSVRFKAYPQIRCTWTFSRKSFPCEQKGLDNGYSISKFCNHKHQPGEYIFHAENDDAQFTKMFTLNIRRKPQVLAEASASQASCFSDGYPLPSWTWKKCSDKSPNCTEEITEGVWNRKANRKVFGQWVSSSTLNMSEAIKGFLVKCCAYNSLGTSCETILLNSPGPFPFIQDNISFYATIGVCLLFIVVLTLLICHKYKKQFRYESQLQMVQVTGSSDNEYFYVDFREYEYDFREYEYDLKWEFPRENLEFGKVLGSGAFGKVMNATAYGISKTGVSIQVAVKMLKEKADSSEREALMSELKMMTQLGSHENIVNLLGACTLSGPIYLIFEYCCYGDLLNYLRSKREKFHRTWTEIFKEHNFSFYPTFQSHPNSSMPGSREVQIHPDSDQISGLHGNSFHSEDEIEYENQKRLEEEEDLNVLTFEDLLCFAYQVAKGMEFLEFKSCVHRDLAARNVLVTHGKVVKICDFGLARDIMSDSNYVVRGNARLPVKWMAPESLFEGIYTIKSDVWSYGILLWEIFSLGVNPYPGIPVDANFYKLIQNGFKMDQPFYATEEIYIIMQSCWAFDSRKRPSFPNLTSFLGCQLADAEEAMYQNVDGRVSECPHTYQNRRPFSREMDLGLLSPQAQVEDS

For `CCc1nn(C)c2c1/C=C/c1n[nH]c3ccc(cc13)-c1cnn(C)c1OCCN(C)C2=O` [Ex. 6, (17E)-16-ethyl-8,12,14-trimethyl-2,11,12,14-tetrahydro-8H-3,5-ethenotripyrazolo[3,4-f:3′,4′-j:4″,3″-n][1,4]oxazacyclopentadecin-13(10H)-one], the “Alternative Splicing Ratio BCL-xS/xL” value with BCLxS/xL (MOLM-13, 30 nM) is on record as 1.51; with BCLxS/xL (MOLM-13, 100 nM), 3.54; with BCLxS/xL (MOLM-13, 300 nM), 4.20. Further, the IC50 (in general, the point on the concentration scale where inhibition reaches its midpoint) with phospho-STAT5 (Y694) is 0.6 nM; in test [1], 2.85 nM; in test [2], 0.41 nM; against FLT3, 0.088 nM; at phospho-FLT3 (Y589/Y591) [3], 0.16 nM; in the test with KG-1, 153 nM. For the same compound, the IC50 in the test with H2291 is 362 nM; in the test with MIAPaCa-2, 53.2 nM; with SNU-16, 90.5 nM; in the test with H727 it was 100 nM; with H358, 148 nM; in the test with Hs746T, 183 nM. Besides, the half-inhibitory concentration (IC50) is 34.6 nM with Toledo; 57.6 nM in the test with TF-1; 516 nM in the test with BJ; 117 nM with SKOV3; 0.32 nM at phospho-FLT3 (Y589/Y591) [4].
